Experiments:
[1] = tested on: Leishmania (L. major); assay: Leishmania protozoa proliferation inhibition assay; type: cell-based; conditions: for OD level (number of viable Leishmania protozoa): 48 hours at 27° C., absorbance 450 nm minus 630 nm; for IC50: calculated from the graphs of FIGS. 1 to 4 (concentration vs number of viable leishmania protozoa), read-out: Concentration inhibiting 50% leishmania proliferation
Experimental: After dissolving each of the obtained compounds in dimethylsulfoxide (hereinafter referred to as DMSO), the resultant was diluted by 9 steps in Medium 199 medium (Invitrogen) to the indicated concentration, filtrated with a membrane filter, and each of the filtration was made as a sample solution. […] By keeping the solution at 27° C., incubation was performed under 5% CO2, for 48 hours. Then, TetraColor ONE (tradename: Seikagaku Corporation) reagent was added thereto and further incubated for 6 hours. Then, the absorbance at a wavelength of 450 nm was measured for the 96-well microtiter plate with a microplate reader, the wave length of 630 nm was made as reference wave length, and in order to exclude background effect, the absorbance at 630 nm was excluded from the one at 450 nm, and the OD level was calculated as a level to indicate the number of viable Leishmania protozoa. The assay was performed by three wells at a time for each concentration of each sample, and the mean level was made as OD level. […] Amphotericin B was used as positive control. […] Inhibiting effect against […] protozoa for each sample was similar or more compared with that of Amtephotericin B.

[2] = Table 3, sample concentration 0.001 mg/ml
[3] = Table 3, sample concentration 0.002165 mg/ml
[4] = Table 3, sample concentration 0.0072171 mg/ml
[5] = Table 3, sample concentration 0.02406 mg/ml
[6] = Table 3, sample concentration 0.08019 mg/ml
[7] = Table 3, sample concentration 0.2673 mg/ml
[8] = Table 3, sample concentration 0.891 mg/ml
[9] = Table 3, sample concentration 2.97 mg/ml
[10] = Table 3, sample concentration 9.9 mg/ml
[11] = Table 3, sample concentration 33 mg/ml
[12] = Table 1, sample concentration 0.001 mg/ml
[13] = Table 1, sample concentration 0.016384 mg/ml
[14] = Table 1, sample concentration 0.04096 mg/ml
[15] = Table 1, sample concentration 0.1024 mg/ml
[16] = Table 1, sample concentration 0.256 mg/ml
[17] = Table 1, sample concentration 0.64 mg/ml
[18] = Table 1, sample concentration 1.6 mg/ml
[19] = Table 1, sample concentration 4 mg/ml
[20] = Table 1, sample concentration 10 mg/ml
[21] = Table 1, sample concentration 25 mg/ml, mean of three wells
[22] = Table 2, sample concentration 0.0001 mg/ml
[23] = Table 2, sample concentration 0.0007 mg/ml
[24] = Table 2, sample concentration 0.002 mg/ml
[25] = Table 2, sample concentration 0.008 mg/ml
[26] = Table 2, sample concentration 0.025 mg/ml
[27] = Table 2, sample concentration 0.084 mg/ml
[28] = Table 2, sample concentration 0.279 mg/ml
[29] = Table 2, sample concentration 0.93 mg/ml
[30] = Table 2, sample concentration 3.1 mg/ml
[31] = Table 2, sample concentration 2E−04 mg/ml

Structure (SMILES) | IC50 [1] | OD level (number of viable Leishmania protozoa) [1, 12] | OD level (number of viable Leishmania protozoa) [1, 13] | OD level (number of viable Leishmania protozoa) [1, 14] | OD level (number of viable Leishmania protozoa) [1, 15] | OD level (number of viable Leishmania protozoa) [1, 16] | OD level (number of viable Leishmania protozoa) [1, 17] | OD level (number of viable Leishmania protozoa) [1, 18] | OD level (number of viable Leishmania protozoa) [1, 19] | OD level (number of viable Leishmania protozoa) [1, 20] | OD level (number of viable Leishmania protozoa) [1, 21] | also measured
C=CCn1c(=Cc2cccc[n+]2C)sc(=C2Sc3ccc(Cl)cc3N2C)c1=O.Cc1ccc(S(=O)(=O)[O-])cc1 [IV (h), 2-[{5-(5-chloro-3-methyl-2(3H)-benzothiazolylidene)-4-oxo-3-(2-propenyl)-2-thiazolidinylidene}methyl]-1-methylpyridinium=p-toluenesulfonate] | 270 nM | – | – | – | – | – | – | – | – | – | – | OD level (number of viable Leishmania protozoa) [1, 2]: 0.352; OD level (number of viable Leishmania protozoa) [1, 3]: 0.368; OD level (number of viable Leishmania protozoa) [1, 4]: 0.375; OD level (number of viable Leishmania protozoa) [1, 5]: 0.423; OD level (number of viable Leishmania protozoa) [1, 6]: 0.277; OD level (number of viable Leishmania protozoa) [1, 7]: 0.140; OD level (number of viable Leishmania protozoa) [1, 8]: 0.079; OD level (number of viable Leishmania protozoa) [1, 9]: 0.039; OD level (number of viable Leishmania protozoa) [1, 10]: 0.029; OD level (number of viable Leishmania protozoa) [1, 11]: 0.034
CN1/C(=C\c2cccc[n+]2C)Sc2ccccc21 [V (a), 2-[(3-methyl-2(3H)-benzothiazolylidene)methyl]-1-methylpyridinium=p-toluenesulfonate] | 490 nM | 0.464 | 0.615 | 1.237 | 0.596 | 0.139 | 0.046 | 0.032 | 0.029 | 0.031 | 0.032 | –
CCn1c(=Cc2sc3ccccc3[n+]2CC)sc(=c2sc(=C3Sc4ccccc4N3C)c(=O)n2CC)c1=O.[Br-] [IV (e), 2-[[5-{5′-(3″-methyl-2″ (3″H)-benzothiazolylidene)-4′-oxo-3′-ethyl-2′-thiazolidinylidene)-4-oxo-3-ethyl-2-thiazolidinylidene]methyl]-3-ethylbenzothiazolium=bromide] | 61 nM | 0.463 | 0.445 | 0.220 | 0.159 | 0.056 | 0.035 | 0.030 | 0.030 | 0.032 | 0.033 | –
CCn1c(=Cc2ccc3ccccc3[n+]2C)sc(=C2Sc3ccccc3N2C)c1=O.[I-] [IV (c), 2-[{5-(3-methyl-2(3H)-benzothiazolylidene)-4-oxo-3-ethyl-2-thiazolidinylidene}methyl]-1-methylquinolinium=iodide] | 820 nM | 0.472 | 0.470 | 0.474 | 0.496 | 0.398 | 0.158 | 0.117 | 0.069 | 0.032 | 0.032 | –
CCn1c(=O)/c(=C2\Sc3ccccc3N2C)s/c1=C\c1cccc[n+]1Cc1ccc(C(=O)O)cc1.[Br-] [I (d), 1-(p-carboxyphenyl)methyl-2-[3-ethyl-{5-(3-methyl-2(3H)-benzothiazolylidene)-4-oxo-2-thiazolidinylidene}methyl]pyridinium=bromide] | 5300 nM | – | – | – | – | – | – | – | – | – | – | OD level (number of viable Leishmania protozoa) [1, 22]: 0.360; OD level (number of viable Leishmania protozoa) [1, 23]: 0.359; OD level (number of viable Leishmania protozoa) [1, 24]: 0.348; OD level (number of viable Leishmania protozoa) [1, 25]: 0.364; OD level (number of viable Leishmania protozoa) [1, 26]: 0.384; OD level (number of viable Leishmania protozoa) [1, 27]: 0.346; OD level (number of viable Leishmania protozoa) [1, 28]: 0.360; OD level (number of viable Leishmania protozoa) [1, 29]: 0.333; OD level (number of viable Leishmania protozoa) [1, 30]: 0.242; OD level (number of viable Leishmania protozoa) [1, 31]: 0.356
CN1C(=c2sc(=Cc3cccc[n+]3C)n(CC3CCCO3)c2=O)Sc2ccc3ccccc3c21.Cc1ccc(S(=O)(=O)[O-])cc1 (centres unmarked) [IV (l), 2-[{5-(3-methyl-2(3H)-benzobenzo[e]thiazolilidene)-4-oxo-3-(2-tetrahydrofuranyl)methyl-2-thiazolidinylidene}methyl]-1-methylpyridinium=p-toluenesulfonate] | 1300 nM | – | – | – | – | – | – | – | – | – | – | OD level (number of viable Leishmania protozoa) [1, 2]: 0.357; OD level (number of viable Leishmania protozoa) [1, 3]: 0.346; OD level (number of viable Leishmania protozoa) [1, 4]: 0.358; OD level (number of viable Leishmania protozoa) [1, 5]: 0.357; OD level (number of viable Leishmania protozoa) [1, 6]: 0.377; OD level (number of viable Leishmania protozoa) [1, 7]: 0.391; OD level (number of viable Leishmania protozoa) [1, 8]: 0.178; OD level (number of viable Leishmania protozoa) [1, 9]: 0.080; OD level (number of viable Leishmania protozoa) [1, 10]: 0.035; OD level (number of viable Leishmania protozoa) [1, 11]: 0.029
CCn1c(=Cc2cccc[n+]2CC)sc(=C2Sc3ccccc3N2C)c1=O.[Cl-] [IV (i), 2-[{5-(3-methyl-2(3H)-benzothiazolylidene)-4-oxo-3-ethyl-2-thiazolidinylidene}methyl]-1-ethylpyridinium=chloride] | 460 nM | 0.451 | 0.504 | 0.482 | 0.478 | 0.153 | 0.086 | 0.039 | 0.033 | 0.030 | 0.026 | –
CCCC[n+]1ccc(/C=c2\s/c(=C3/Sc4ccccc4N3C)c(=O)n2CC)cc1.[Br-] [I (b), 1-butyl-4-[3-ethyl-{5-(3-methyl-2(3H)-benzothiazolylidene)-4-oxo-2-thiazolidinylidene}methyl]pyridinium=bromide] | 3700 nM | – | – | – | – | – | – | – | – | – | – | OD level (number of viable Leishmania protozoa) [1, 22]: 0.363; OD level (number of viable Leishmania protozoa) [1, 23]: 0.345; OD level (number of viable Leishmania protozoa) [1, 24]: 0.335; OD level (number of viable Leishmania protozoa) [1, 25]: 0.335; OD level (number of viable Leishmania protozoa) [1, 26]: 0.435; OD level (number of viable Leishmania protozoa) [1, 27]: 0.465; OD level (number of viable Leishmania protozoa) [1, 28]: 0.106; OD level (number of viable Leishmania protozoa) [1, 29]: 0.032; OD level (number of viable Leishmania protozoa) [1, 30]: 0.032; OD level (number of viable Leishmania protozoa) [1, 31]: 0.343; melting point: 299 to 300 °C

From patent US20060252800A1, “Anti-leishmania agent” (priority 2003, published 2006)
